Columns and labels:
nutsedge, yellow = assay: Test C pre-/postemergence herbicide test; type: in vivo, Cyperus esculentus
Procedure, shortened: (§1)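 Greenhouse plants scored visually against untreated controls 13–15 days after treatment, 0 = no effect, 100 = complete control. Test chemicals in a non-phytotoxic solvent with surfactant were applied either to soil (loam/sand) at planting or to foliage of 1- to 4-leaf plants, 2–18 cm tall.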

pigweed = assay: Test A pre-/postemergence herbicide test; type: in vivo, Amaranthus retroflexus
Procedure, shortened: (§2)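 Visual 0–100 ratings (100 = complete control) made about 10 days after treatment, greenhouse-held plants compared with untreated controls. Treatments: postemergence sprays on one- to two-leaf plants (2–10 cm tall) and preemergence directed soil sprays after planting in loam–sand, chemicals formulated in non-phytotoxic solvent containing surfactant.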

barnyardgrass [1] = assay: Test B flooded paddy test; type: in vivo, Echinochloa crus-galli; settings: Flood, scale of 0 to 100 where 0 is no effect and 100 is complete control
Procedure, shortened: (§3)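 Plants grown to 2-leaf stage; pots flooded 3 cm above soil and compound applied directly into paddy water, depth held throughout. Visual rating against untreated controls after 13 to 15 days in greenhouse, 0 (no effect) to 100 (complete control).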

rice = assay: Test B flooded paddy test; type: in vivo, Oryza sativa; settings: Flood, scale of 0 to 100 where 0 is no effect and 100 is complete control
Procedure, shortened: as §3

barnyardgrass [2] = assay: Test A pre-/postemergence herbicide test; type: in vivo, Echinochloa crus-galli
Procedure, shortened: as §2

ryegrass, Italian = assay: Test C pre-/postemergence herbicide test; type: in vivo, Lolium multiflorum
Procedure, shortened: as §1

morningglory = assay: Test C pre-/postemergence herbicide test; type: in vivo, Ipomoea coccinea
Procedure, shortened: as §1

waterhemp = assay: Test C pre-/postemergence herbicide test; type: in vivo, Amaranthus rudis
Procedure, shortened: as §1

barnyardgrass [3] = assay: Test C pre-/postemergence herbicide test; type: in vivo, Echinochloa crus-galli
Procedure, shortened: as §1

oat, wild = assay: Test C pre-/postemergence herbicide test; type: in vivo, Avena fatua; settings: Postemergence
Procedure, shortened: as §1

ducksalad = assay: Test B flooded paddy test; type: in vivo, Heteranthera limosa; settings: Flood, scale of 0 to 100 where 0 is no effect and 100 is complete control
Procedure, shortened: as §3

soybean = assay: Test C pre-/postemergence herbicide test; type: in vivo, Glycine max
Procedure, shortened: as §1

[4] = Postemergence, 31 g ai/ha, scale 0 to 100 (0 no effect, 100 complete control)
[5] = Postemergence, 62 g ai/ha, scale 0 (no effect) to 100 (complete control)
[6] = Postemergence, 125 g ai/ha, scale 0 to 100 (0 no effect, 100 complete control)
[7] = Postemergence, 250 g ai/ha, scale 0 to 100 (0 no effect, 100 complete control)
[8] = Preemergence, 31 g ai/ha, scale 0 to 100, 0 is no effect and 100 is complete control
[9] = Preemergence, 62 g ai/ha, scale 0 to 100 (0 no effect, 100 complete control)
[10] = Preemergence, 125 g ai/ha, scale 0 to 100
[11] = Postemergence, 125 g ai/ha, visual rating on 0 to 100 scale (0 no effect, 100 complete control), approx. 10 days
[12] = Postemergence, 500 g ai/ha, 0 to 100 scale (0 no effect, 100 complete control)
[13] = Preemergence, 125 g ai/ha, 0 to 100 scale where 0 is no effect and 100 is complete control
[14] = Preemergence, 500 g ai/ha, visual rating on 0 to 100 scale (0 no effect, 100 complete control)
[15] = Preemergence, 125 g ai/ha, scale 0 to 100 (0 no effect, 100 complete control)
[16] = 31 g ai/ha, scale 0 to 100 (0 no effect, 100 complete control)
[17] = 62 g ai/ha, scale 0 (no effect) to 100 (complete control)
[18] = 125 g ai/ha, scale 0 to 100 (0 no effect, 100 complete control)
[19] = 250 g ai/ha, scale 0 to 100 (0 no effect, 100 complete control)
[20] = Preemergence, 31 g ai/ha, scale 0 to 100

O=C1NCC(c2cccc(OC(F)F)c2)C1C(=O)Nc1ccccc1F (centres unmarked) [Compound 323]
Plant response rating, Nutsedge, Yellow (nutsedge, yellow; [4]): 0
Plant response rating, Nutsedge, Yellow (nutsedge, yellow; [5]): 0
Plant response rating, Nutsedge, Yellow (nutsedge, yellow; [6]): 0
Plant response rating, Nutsedge, Yellow (nutsedge, yellow; [7]): 0
Nutsedge, Yellow plant response rating (nutsedge, yellow; [8]): 20
Nutsedge, Yellow plant response rating (nutsedge, yellow; [9]): 25
Plant response rating, Nutsedge, Yellow (nutsedge, yellow; [10]): 25
Plant response rating (scale of 0 to 100), Nutsedge, Yellow (nutsedge, yellow; Preemergence, 250 g ai/ha): 75
Plant response rating, Pigweed (pigweed; [11]): 20
Plant response rating, Pigweed (pigweed; [12]): 30
Plant response rating, Pigweed (pigweed; [13]): 20
Pigweed plant response rating (pigweed; [14]): 30
Plant response rating, Barnyardgrass (barnyardgrass [1]; 500 g ai/ha): 80
Plant response rating, Rice (rice; 500 g ai/ha): 20
Plant response rating, Barnyardgrass (barnyardgrass [2]; [11]): 90
Plant response rating, Barnyardgrass (barnyardgrass [2]; [12]): 90
Plant response rating, Barnyardgrass (barnyardgrass [2]; [13]): 90
Barnyardgrass plant response rating (barnyardgrass [2]; [14]): 90
Plant response rating, Ryegrass, Italian (ryegrass, Italian; [4]): 0
Plant response rating, Ryegrass, Italian (ryegrass, Italian; [5]): 0
Plant response rating, Ryegrass, Italian (ryegrass, Italian; [6]): 0
Plant response rating, Ryegrass, Italian (ryegrass, Italian; [7]): 5
Ryegrass, Italian plant response rating (ryegrass, Italian; [9]): 10
Plant response rating, Ryegrass, Italian (ryegrass, Italian; [10]): 0
Plant response rating, Morningglory (morningglory; [4]): 0
Plant response rating, Morningglory (morningglory; [5]): 25
Plant response rating, Morningglory (morningglory; [6]): 5
Plant response rating, Morningglory (morningglory; [7]): 25
Morningglory plant response rating (morningglory; [8]): 0
Morningglory plant response rating (morningglory; [9]): 0
Plant response rating, Morningglory (morningglory; [10]): 0
Plant response rating (scale of 0 to 100), Morningglory (morningglory; Preemergence, 250 g ai/ha): 30
Plant response rating, Waterhemp (waterhemp; [4]): 0
Plant response rating, Waterhemp (waterhemp; [5]): 0
Plant response rating, Waterhemp (waterhemp; [6]): 0
Plant response rating, Waterhemp (waterhemp; [7]): 20
Waterhemp plant response rating (waterhemp; [9]): 50
Plant response rating, Waterhemp (waterhemp; [10]): 60
Plant response rating, Barnyardgrass (barnyardgrass [3]; [4]): 0
Plant response rating, Barnyardgrass (barnyardgrass [3]; [5]): 10
Plant response rating, Barnyardgrass (barnyardgrass [3]; [6]): 35
Plant response rating, Barnyardgrass (barnyardgrass [3]; [7]): 70
Barnyardgrass plant response rating (barnyardgrass [3]; [8]): 80
Barnyardgrass plant response rating (barnyardgrass [3]; [9]): 85
Plant response rating, Barnyardgrass (barnyardgrass [3]; [15]): 98
Plant response rating (scale of 0 to 100; 0 is no effect, 100 is complete control), Barnyardgrass (barnyardgrass [3]; Preemergence, 250 g ai/ha): 98
Plant response rating, Oat, Wild (oat, wild; [16]): 0
Plant response rating, Oat, Wild (oat, wild; [17]): 0
Plant response rating, Oat, Wild (oat, wild; [18]): 0
Plant response rating, Oat, Wild (oat, wild; [19]): 0
Plant response rating, Ducksalad (ducksalad; 500 g ai/ha): 100
Plant response rating, Soybean (soybean; [4]): 0
Plant response rating, Soybean (soybean; [5]): 0
Plant response rating, Soybean (soybean; [6]): 0
Plant response rating, Soybean (soybean; [7]): 0
Soybean plant response rating (soybean; [9]): 0
Plant response rating, Soybean (soybean; [10]): 0

O=C1NCC(c2ccc(F)c(F)c2)C1C(=O)Nc1ccc(F)c(F)c1F (centres unmarked) [Compound 346]
Plant response rating, Nutsedge, Yellow (nutsedge, yellow; [4]): 0
Plant response rating, Nutsedge, Yellow (nutsedge, yellow; [5]): 0
Plant response rating, Nutsedge, Yellow (nutsedge, yellow; [6]): 0
Plant response rating, Nutsedge, Yellow (nutsedge, yellow; [7]): 5
Nutsedge, Yellow plant response rating (nutsedge, yellow; [9]): 0
Plant response rating, Nutsedge, Yellow (nutsedge, yellow; [10]): 0
Plant response rating (scale of 0 to 100), Nutsedge, Yellow (nutsedge, yellow; Preemergence, 250 g ai/ha): 0
Plant response rating, Nutsedge, Yellow (nutsedge, yellow; [20]): 0
Plant response rating, Pigweed (pigweed; [11]): 0
Plant response rating, Pigweed (pigweed; [13]): 20
Pigweed plant response rating (pigweed; [14]): 30
Plant response rating, Barnyardgrass (barnyardgrass [1]; 1000 g ai/ha): 85
Plant response rating, Rice (rice; 1000 g ai/ha): 0
Plant response rating, Barnyardgrass (barnyardgrass [2]; [11]): 80
Plant response rating, Barnyardgrass (barnyardgrass [2]; [12]): 90
Plant response rating, Barnyardgrass (barnyardgrass [2]; [13]): 80
Barnyardgrass plant response rating (barnyardgrass [2]; [14]): 90
Plant response rating, Ryegrass, Italian (ryegrass, Italian; [4]): 0
Plant response rating, Ryegrass, Italian (ryegrass, Italian; [5]): 0
Plant response rating, Ryegrass, Italian (ryegrass, Italian; [6]): 0
Plant response rating, Ryegrass, Italian (ryegrass, Italian; [7]): 0
Ryegrass, Italian plant response rating (ryegrass, Italian; [9]): 10
Plant response rating, Ryegrass, Italian (ryegrass, Italian; [10]): 5
Plant response rating, Ryegrass, Italian (ryegrass, Italian; [20]): 0
Plant response rating, Morningglory (morningglory; [4]): 0
Plant response rating, Morningglory (morningglory; [5]): 5
Plant response rating, Morningglory (morningglory; [6]): 15
Plant response rating, Morningglory (morningglory; [7]): 5
Morningglory plant response rating (morningglory; [9]): 0
Plant response rating, Morningglory (morningglory; [10]): 30
Plant response rating (scale of 0 to 100), Morningglory (morningglory; Preemergence, 250 g ai/ha): 0
Plant response rating, Morningglory (morningglory; [20]): 0
Plant response rating, Waterhemp (waterhemp; [4]): 0
Plant response rating, Waterhemp (waterhemp; [5]): 0
Plant response rating, Waterhemp (waterhemp; [6]): 15
Plant response rating, Waterhemp (waterhemp; [7]): 40
Waterhemp plant response rating (waterhemp; [9]): 25
Plant response rating, Waterhemp (waterhemp; [10]): 10
Plant response rating, Waterhemp (waterhemp; [20]): 75
Plant response rating, Barnyardgrass (barnyardgrass [3]; [4]): 0
Plant response rating, Barnyardgrass (barnyardgrass [3]; [5]): 0
Plant response rating, Barnyardgrass (barnyardgrass [3]; [6]): 30
Plant response rating, Barnyardgrass (barnyardgrass [3]; [7]): 60
Barnyardgrass plant response rating (barnyardgrass [3]; [9]): 70
Plant response rating, Barnyardgrass (barnyardgrass [3]; [15]): 95
Plant response rating (scale of 0 to 100; 0 is no effect, 100 is complete control), Barnyardgrass (barnyardgrass [3]; Preemergence, 250 g ai/ha): 98
Plant response rating, Barnyardgrass (barnyardgrass [3]; [20]): 50
Plant response rating, Oat, Wild (oat, wild; [16]): 0
Plant response rating, Oat, Wild (oat, wild; [17]): 0
Plant response rating, Oat, Wild (oat, wild; [18]): 0
Plant response rating, Oat, Wild (oat, wild; [19]): 0
Plant response rating, Ducksalad (ducksalad; 1000 g ai/ha): 100
Plant response rating, Soybean (soybean; [4]): 0
Plant response rating, Soybean (soybean; [5]): 5
Plant response rating, Soybean (soybean; [6]): 0
Plant response rating, Soybean (soybean; [7]): 5
Soybean plant response rating (soybean; [9]): 0
Plant response rating, Soybean (soybean; [10]): 0
Plant response rating, Soybean (soybean; [20]): 0
